Measured values taken from US5147876A, “2,6-di,2,4,6-, 2,5,6-tri and 2,4,5,6-tetra-substituted pyrimidines, their pharmaceutically acceptable salts, pharmaceutical compositions containing same and their use in the treatment of neurological diseases” (Mitsui Petrochemical Industries, Ltd., priority 1988, dated 1992).

Legend:
[1] = system: neuro-2a (mouse neuroblastoma cells); experiment: Action on neuro-2a: proportion of cells containing outgrown neurites; format: cell-based; conditions: mean ± S.D.
Protocol: (§1) The effects of the compounds of this invention on neuroblastoma cells were examined by the following method.
(§2) Mouse neuro 2a cells in the logarithmic growth period in the Dulbecco's modified Eagle's medium DMEM, containing 100 units/ml of penicillin G sodium and 100 micrograms/ml of streptomycin sulfate]containing 10 % of FCS were seeded in a 48-well plate so that the number of cells was 1,000 cells/well, and cultured for one day in 0.25 ml of the culture fluid in each well in an incubator containing 5 % of carbon dioxide gas in air at 37° C. Then, a 4 % aqueous glutaraldehyde solution in the same amount as a medium (0.25 ml) was added, and the culture fluid was left to stand at room temperature for 2 hours to fix the cells. After washing with water, a 0.05 % aqueous solution of methylene blue was added to stain the cells Under a microscope, the number of cells containing outgrown neurites (cells having at least one neurite with a length of at least two times as large as the long diameter of the cell) was counted visually, and the proportion of these cells in the entire cells was calculated. The well was observed over 5 or more visual fields (at least 2 % of the entire surface area of the well) continuous to the left and right from a mark put at the center of the well, and more than 200 cells was counted. One drug compound was used in 6 different concentrations at most, and three runs were conducted for each concentrations.

[2] = system: NS-20Y (mouse neuroblastoma cells); experiment: Activity on NS-20Y cells: appearance of neurites; format: cell-based
Protocol: as §1, §2
Mouse neuroblastoma cells NS-20Y were similarly cultured in a dish coated with polyornithine, and the effects of the compounds were examined.

| SMILES | Number of cells having neurites with a length at least two times the diameter of each cell/total number of cells ([1]; 0.1 mM) [%] | Number of cells having neurites with a length at least two times the diameter of each cell/total number of cells ([1]; 0.3 mM) [%] | Number of cells having neurites with a length at least two times the diameter of each cell/total number of cells ([1]; 0.03 mM) [%] | also measured |
| --- | --- | --- | --- | --- |
| CN(C(=O)c1ccc(F)cc1)c1ccnc(N2CCC(c3ccccc3)CC2)n1 [Compound 242] | 17.0 ± 2.3 | 12.8 ± 6.3 |  | Number of cells having neurites with a length at least two times the diameter of each cell/total number of cells ([1]; 1 mM): 9.4 ± 3.9%; Number of cells in which neurites appeared/total number of cells ([2]; 24 hours, 0.2 mM): 4/50; Number of cells in which neurites appeared/total number of cells ([2]; 24 hours, 0.4 mM): 6/50; Number of cells in which neurites appeared/total number of cells ([2]; 48 hours, 0.1 mM): 6/50; Number of cells in which neurites appeared/total number of cells ([2]; 48 hours, 0.2 mM): 11/50 |
| CN(C(=O)c1ccccc1)c1ccnc(N2CCNCC2)n1 [Compound 344] | 4.7 ± 1.8 | 4.5 ± 2.1 | 4.0 ± 1.7 | Number of cells having neurites with a length at least two times the diameter of each cell/total number of cells ([1]; 0.01 mM): 3.6 ± 0.7%; Number of cells in which neurites appeared/total number of cells ([2]; 24 hours, 0.2 mM): 3/51; Number of cells in which neurites appeared/total number of cells ([2]; 48 hours, 0.5 mM): 2/49 |
| CNc1ccnc(N2CCC(c3ccccc3)CC2)n1.O=C(O)/C=C\C(=O)O [Compound 1026, 4-Methylamino-2-(4-phenylpiperidino)pyrimidine maleate] | 5.6 ± 2.2 |  | 3.5 ± 0.5 | Number of cells in which neurites appeared/total number of cells ([2]; 24 hours, 0.02 mM): 4/50; Number of cells in which neurites appeared/total number of cells ([2]; 24 hours, 0.1 mM): 31/50; Number of cells in which neurites appeared/total number of cells ([2]; 48 hours, 0.02 mM): 2/50 |
| COCc1nc(N2CCCCC2)ncc1C(=O)OC [Compound 820, 2-piperidino-4-methoxymethyl-5-methoxycarbonylpyrimidine] |  |  |  | Number of cells having neurites with a length at least two times the diameter of each cell/total number of cells ([1]; 1 mM): 8.4 ± 1.1%; Number of cells having neurites with a length at least two times the diameter of each cell/total number of cells ([1]; 3 mM): 8.8 ± 2.3%; Number of cells in which neurites appeared/total number of cells ([2]; 24 hours, 0.1 mM): 4/50; Number of cells in which neurites appeared/total number of cells ([2]; 24 hours, 0.5 mM): 5/53; Number of cells in which neurites appeared/total number of cells ([2]; 48 hours, 0.1 mM): 4/50; Number of cells in which neurites appeared/total number of cells ([2]; 48 hours, 0.25 mM): 5/55 |
| CN(C(=O)c1ccccc1)c1nc(N2CCC(c3ccccc3)CC2)ncc1F [Compound 432] | 2.9 ± 1.0 | 3.6 ± 1.7 |  | Number of cells in which neurites appeared/total number of cells ([2]; 24 hours, 0.02 mM): 7/50; Number of cells in which neurites appeared/total number of cells ([2]; 24 hours, 0.4 mM): 7/50; Number of cells in which neurites appeared/total number of cells ([2]; 48 hours, 0.4 mM): 4/50 |
| CN(C(=O)c1ccccc1)c1ccnc(N2CCOCC2)n1 [Compound 336] | 5.8 ± 2.4 | 6.3 ± 2.8 |  | Number of cells in which neurites appeared/total number of cells ([2]; 24 hours, 0.2 mM): 3/54; Number of cells in which neurites appeared/total number of cells ([2]; 48 hours, 0.5 mM): 2/50 |
| CNc1cc(C)nc(N2CCCCC2)n1 [Compound 1086] | 3.1 ± 1.3 | 8.7 ± 0.8 | 1.9 ± 1.8 | Number of cells having neurites with a length at least two times the diameter of each cell/total number of cells ([1]; 1 mM): 17.4 ± 1.1%; Number of cells in which neurites appeared/total number of cells ([2]; 24 hours, 0.4 mM): 4/50; Number of cells in which neurites appeared/total number of cells ([2]; 48 hours, 0.02 mM): 2/50 |
| Cc1ccc(S(=O)(=O)O)cc1.Cc1ccccc1C(=O)N(C)c1ccnc(N2CCC(c3ccccc3)CC2)n1 [Compound 171-7] | 6.7 ± 3.1 |  | 8.5 ± 1.0 | Number of cells in which neurites appeared/total number of cells ([2]; 24 hours, 0.1 mM): 4/50; Number of cells in which neurites appeared/total number of cells ([2]; 48 hours, 0.1 mM): 2/50 |
| CCOC(=O)c1cnc(N2CCCCC2)nc1CNC [Compound 812] | 3.5 ± 0.5 | 3.4 ± 0.5 |  | Number of cells in which neurites appeared/total number of cells ([2]; 24 hours, 0.5 mM): 9/50; Number of cells in which neurites appeared/total number of cells ([2]; 24 hours, 1.0 mM): 11/50; Number of cells in which neurites appeared/total number of cells ([2]; 48 hours, 0.3 mM): 9/50; Number of cells in which neurites appeared/total number of cells ([2]; 48 hours, 0.5 mM): 5/51 |
| CNc1ccnc(N2CCCCC2)n1 [Compound 1014] | 4.7 ± 0.7 | 7.6 ± 1.5 |  | Number of cells in which neurites appeared/total number of cells ([2]; 24 hours, 0.1 mM): 3/50; Number of cells in which neurites appeared/total number of cells ([2]; 24 hours, 0.4 mM): 9/50; Number of cells in which neurites appeared/total number of cells ([2]; 48 hours, 0.4 mM): 6/50 |
| CN1CCN(C(=O)N(C)c2ccnc(N3CCC(c4ccccc4)CC3)n2)CC1 [Compound 2234] | 5.7 ± 2.8 |  | 5.1 ± 3.2 |  |
| CNc1nc(N2CCC(c3ccccc3)CC2)ncc1C [Compound 1098] | 5.7 ± 2.0 |  | 10.2 ± 0.9 | Number of cells having neurites with a length at least two times the diameter of each cell/total number of cells ([1]; 0.01 mM): 5.3 ± 1.4% |
| CN(C(=O)c1ccccc1)c1ccnc(N2CCC(NC(=O)c3ccccc3)CC2)n1 [Compound 2174] |  |  |  | Number of cells having neurites with a length at least two times the diameter of each cell/total number of cells ([1]; 0.01 mM): 2.5 ± 1.0% |
| CNc1ccnc(N2CCCc3ccccc32)n1 [Compound 1034] | 7.6 ± 2.1 | 11.3 ± 1.6 | 3.9 ± 2.8 |  |
| CN(C(=O)c1ccccc1)c1ccnc(N2CCC(N3CCCCC3)CC2)n1 [Compound 2052] |  |  | 3.7 ± 0.4 | Number of cells having neurites with a length at least two times the diameter of each cell/total number of cells ([1]; 0.01 mM): 4.6 ± 2.1% |
| CN(C(=O)c1ccccc1)c1ccnc(N2CCC(N(C)C)CC2)n1 [Compound 2148] | 4.2 ± 1.2 |  | 4.5 ± 1.3 |  |
| CNc1ccnc(N2CCc3ccccc3C2)n1 [Compound 1038] | 2.9 ± 0.3 |  | 2.2 ± 0.4 |  |
| CN(C(=O)c1ccccc1)c1ccnc(N2CCC(c3ccccc3)CC2)n1 [Compound 165] | 41.0 ± 0.7 | 12.4 ± 1.8 |  |  |
| CN(C(=O)c1ccccc1)c1ccnc(N2CCC(c3ccccc3)CC2)n1 [Compound 167] | 22.5 ± 3.4 | 9.3 ± 2.3 |  |  |
| CNc1nc(C)cc(N2CCCCC2)n1 [Compound 1110] | 6.3 ± 4.4 | 16.5 ± 2.1 | 4.4 ± 0.3 | Number of cells having neurites with a length at least two times the diameter of each cell/total number of cells ([1]; 0.01 mM): 3.4 ± 1.1% |
| CN(C(=O)c1ccccc1)c1ccnc(NC2CCNCC2)n1 [Compound 2188] | 2.4 ± 0.9 | 3.8 ± 1.1 |  |  |
| CNc1nc(N2CCCc3ccccc32)ncc1C [Compound 1102] | 11.9 ± 0.7 | 10.1 ± 3.0 |  |  |
| CN1C(=O)Cc2cnc(N3CCN(S(C)(=O)=O)CC3)nc21 [Compound 3404] |  | 3.4 ± 1.4 | 3.3 ± 1.3 |  |
| CN(C(=O)c1ccccc1)c1ccnc(N2CCC(C(=O)c3ccccc3)CC2)n1 [Compound 306] | 2.8 ± 0.8 |  | 7.7 ± 0.5 |  |
| CN(C(=O)c1ccc(NC(=O)c2ccccc2)cc1)c1ccnc(N2CCC(c3ccccc3)CC2)n1 [Compound 2194] | 9.5 ± 3.5 | 7.6 ± 2.8 |  |  |
| Cc1ccc(C(c2ccccc2)N2CCN(c3ncc4c(n3)N(C)C(=O)C4)CC2)cc1.Cc1ccc(S(=O)(=O)O)cc1 (stereo not drawn) [Compound 3152, 2-(4-(α(4-methylphenyl)benzyl)piperazino)-5,6-dihydro-7-methyl-6-oxo(7H)pyrrolo[2,3-d)pyrimidine p-toluenesulfonate] | 6.8 ± 4.2 |  | 11.4 ± 3.1 |  |
